Where two headings read alike, the source gives them in different places.
Tests used:
[1] = molecular target: non-NMDA glutamate receptors; design: method as in Phillips et al., 1997; conditions: neocortical wedges; ref Phillips et al., 1997; cited from earlier work
CI-AMPARs = molecular target: T1, CI-AMPARs (Rattus norvegicus, UniProt P19491, Q607R); test: Whole-cell patch-clamp of kainate-induced currents in isolated hippocampal CA1 pyramidal neurons; format: cell-based, Wistar rat; conditions: for % block: representative recording; for inhibition at 30 µM: 30 µM phenytoin, n = 7; for inhibition at 100 µM: 100 µM phenytoin, read-out: % inhibition; for inhibition at 50 µM: n = 6
T1 construct: activity against native calcium-permeable AMPA receptors (CP-AMPARs) and calcium-impermeable AMPA receptors (CI-AMPARs); endogenous in cells; host or cells: acutely isolated pyramidal neurons from the CA1 area of Wistar rat hippocampal slices
Protocol: All experimental procedures were approved by the Animal Care and Use Committee of the I.M. Sechenov Institute of Evolutionary Physiology and Biochemistry of the Russian Academy of Sciences. Wistar rats (13–19 days old) were anesthetized with sevoflurane and then decapitated. Maximum effort was made to minimize the number of animals used. Brains were removed quickly and cooled to 2–4°C in an ice bath. […] The antagonism of CI-AMPARs was studied on pyramidal neurons from the CA1 area of the hippocampus.
Series resistance of about 20 MΩ was compensated by 70–80% and monitored during experiments. Currents were recorded using an EPC-8 amplifier (HEKA Electronics, Lambrecht, Germany), filtered at 5 kHz, sampled, and stored on a personal computer. Drugs were applied using the RSC-200 perfusion system (BioLogic Science Instruments, Claix, France) under computer control. The solution exchange time in the whole-cell mode was 50–60 ms. […] The pipette solution contained (in mM) CsF 100, CsCl 40, NaCl 5, CaCl2 0.5, EGTA 5, and HEPES 10 (pH was adjusted to 7.2 with CsOH). Experiments were performed at room temperature (22–24°C). […] Lamotrigine, topiramate, levetiracetam, felbamate, carbamazepine, tiagabin, vigabatrin, zonisamide, and gabapentin were purchased from Tocris Bioscience (Bristol, United Kingdom). Perampanel was from MedChemExpress (Stockholm, Sweden). Kinetics of transient processes of more than 20-ms duration was approximated by exponential functions. Experiments were performed at −80 mV holding voltage. All experimental data are presented as mean ± SD estimated from at least four experiments. Significance of the effects was tested with paired t test. Differences were considered significant at p < 0.05. 3D structures of compounds were calculated by the ZMM software (zmmsoft.ca).

[2] = double-pulse protocol, 30-s pause

T1 sequence (P19491 22-883 Q607R): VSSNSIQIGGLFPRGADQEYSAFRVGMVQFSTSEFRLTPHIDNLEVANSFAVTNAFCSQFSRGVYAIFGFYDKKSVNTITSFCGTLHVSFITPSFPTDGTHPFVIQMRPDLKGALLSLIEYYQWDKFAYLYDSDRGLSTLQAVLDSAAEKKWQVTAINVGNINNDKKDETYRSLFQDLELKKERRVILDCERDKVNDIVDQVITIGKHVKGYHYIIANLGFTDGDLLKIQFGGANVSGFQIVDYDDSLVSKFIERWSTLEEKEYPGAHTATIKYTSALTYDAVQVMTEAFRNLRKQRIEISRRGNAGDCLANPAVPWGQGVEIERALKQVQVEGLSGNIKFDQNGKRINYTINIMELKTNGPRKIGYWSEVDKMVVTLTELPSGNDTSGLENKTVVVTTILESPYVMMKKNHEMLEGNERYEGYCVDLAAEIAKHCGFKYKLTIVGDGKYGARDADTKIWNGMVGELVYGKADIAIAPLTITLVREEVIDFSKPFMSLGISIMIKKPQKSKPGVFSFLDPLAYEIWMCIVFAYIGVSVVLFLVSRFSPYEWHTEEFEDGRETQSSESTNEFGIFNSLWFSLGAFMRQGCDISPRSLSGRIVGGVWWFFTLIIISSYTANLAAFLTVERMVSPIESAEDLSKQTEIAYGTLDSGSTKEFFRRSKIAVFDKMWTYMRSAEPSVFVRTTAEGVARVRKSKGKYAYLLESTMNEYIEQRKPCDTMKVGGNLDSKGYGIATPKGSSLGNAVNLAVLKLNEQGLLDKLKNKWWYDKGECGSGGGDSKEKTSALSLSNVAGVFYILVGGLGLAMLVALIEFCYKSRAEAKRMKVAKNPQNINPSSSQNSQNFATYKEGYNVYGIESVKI

## O=C1NC(=O)C(c2ccccc2)(c2ccccc2)N1 [Phenytoin]
[1]
  IC50: ≥ 100 µM
CI-AMPARs; 10 μM phenytoin, Figure 1A
  % block: 28%
CI-AMPARs; 50 µM kainate
  inhibition at 30 µM: 55 ± 3%
CI-AMPARs; 500 µM kainate
  inhibition at 30 µM: 40 ± 7%
CI-AMPARs; 30 μM phenytoin, Figure 1A
  % block: 52%
CI-AMPARs; 50 µM phenytoin
  Washout kinetics τ: 1,100 ± 200 ms
CI-AMPARs; 100 µM cyclothiazide, 50 µM kainate
  Activity drop in the presence of cyclothiazide: Yes
CI-AMPARs; 50 µM kainate, absence of cyclothiazide
  inhibition at 100 µM: 74 ± 4%
CI-AMPARs; 50 µM kainate, presence of 100 µM cyclothiazide
  inhibition at 100 µM: 21 ± 7%
CI-AMPARs; 100 μM phenytoin, Figure 1A
  % block: 75%
CI-AMPARs; 300 µM compound, read-out: percentage of inhibition at 300-µM concentration
  inhibition at 300 µM: ≥ 80%
CI-AMPARs; 300 µM phenytoin, 500 µM kainate, n = 4
  τ of the testing response to kainate in the trapping protocol: 81 ± 17 ms
CI-AMPARs; 300 µM phenytoin, coapplication with agonist, n = 5, read-out: % inhibition of open AMPA receptor channels
  inhibition at 300 µM: 87 ± 5%
CI-AMPARs; 300 µM phenytoin, preapplication without agonist, n = 5, read-out: % inhibition of closed AMPA receptor channels
  inhibition at 300 µM: 37 ± 7%
CI-AMPARs; 300 μM phenytoin, Figure 1A
  % block: 87%
CI-AMPARs; 500 µM phenytoin, highest concentration tested
  inhibition of kainate-induced currents: almost complete inhibition
CI-AMPARs; 50 vs 500 µM kainate
  Activity drop at high (500 µM) kainate concentration: Yes
  decrease in the % of inhibition with the increase in agonist concentration: 10–15%
CI-AMPARs; Phenytoin, 30 μM, Ka 50 μM, Figure 3A
  % block: 57%
CI-AMPARs; Phenytoin, 30 μM, Ka 500 μM, Figure 3A
  % block: 44%
CI-AMPARs; Phenytoin, 100 μM, Kainate, 50 μM + cyclothiazide, 100 μM, Figure 5C
  % block: 19%
CI-AMPARs; Phenytoin, 100 μM, Kainate, 50 μM, Figure 5B
  % block: 74%
CI-AMPARs; coapplication with kainate vs preapplication without kainate
  Difference in the % of inhibition in coapplication and preapplication protocols: Yes
CI-AMPARs; comparison of CI-AMPARs and CP-AMPARs
  More active against CI-AMPARs: Yes
CI-AMPARs; [2]
  Trap in kainate 100 µM: Yes
  Trap in kainate 500 µM: questionable
CI-AMPARs; double-pulse protocol, 30-s pause, listed as phenytoin
  Trap in kainate 100 µM: pronounced trapping
CI-AMPARs; inhibition of CI-AMPARs, Hill equation
  Hill coefficient: 0.9 ± 0.2
CI-AMPARs; pH 7.4, 50 µM phenytoin, pH 7.4
  inhibition at 50 µM: 60 ± 3%
CI-AMPARs; pH 7.4 vs 9.0
  pH-dependence: Yes
CI-AMPARs; pH 9, 50 µM phenytoin, pH 9.0
  inhibition at 50 µM: 28 ± 8%
CI-AMPARs; phenytoin 50 μM, pH 7.4, Kainate, 100 μM, Figure 10A
  % block: 62%
CI-AMPARs; phenytoin 50 μM, pH 9.0, Kainate, 100 μM, Figure 10A
  % block: 29%

Reference: paper PMC8688955 (Frontiers in Pharmacology, 2021)
